Experimental data: patent US7560466B2, “Methods of treating or preventing autoimmune diseases with 2,4-pyrimidinediamine compounds” (Rigel Pharmaceuticals, Inc., priority 2003, dated 2009)

Target: T1, Syk kinase (Homo sapiens, UniProt P43405)
T1 construct: purchased Upstate, Lake Placid N.Y
Test: Syk kinase biochemical fluorescence polarization assay
Settings: isolated Syk kinase, 4 uM ATP, 11pt, read-out: fp_syk, 11pt
Experimental: Many of the 2,4-pyrimidinediamine compounds were tested for the ability to inhibit Syk kinase catalyzed phosphorylation of a peptide substrate in a biochemical fluorescenced polarization assay with isolated Syk kinase. In this experiment, Compounds were diluted to 1% DMSO in kinase buffer (20 mM HEPES, pH 7.4, 5 mM MgCl2, 2 mM MnCl2, 1 mM DTT, 0.1 mg/mL acetylated Bovine Gamma Globulin). Compound in 1% DMSO (0.2% DMSO final) was mixed with ATP/substrate solution at room temperature. Syk kinase (Upstate, Lake Placid N.Y.) was added to a final reaction volume of 20 uL, and the reaction was incubated for 30 minutes at room temperature. […] EDTA (10 mM final)/anti-phosphotyrosine antibody (1× final)/fluorescent phosphopeptide tracer (0.5× final) was added in FP Dilution Buffer to stop the reaction for a total volume of 40 uL according to manufacturer's instructions (PanVera Corporation) The plate was incubated for 30 minutes in the dark at room temperature. Plates were read on a Polarion fluorescence polarization plate reader (Tecan). Data were converted to amount of phosphopeptide present using a calibration curve generated by competition with the phosphopeptide competitor provided in the Tyrosine Kinase Assay Kit, Green (PanVera Corporation).
In Tabe 1, all reported values are IC50s (in μM).

Row | IC50 [µM] | SMILES
1 | < 10 | COC(=O)CCNC(=O)c1ccc(Nc2ncc(F)c(Nc3ccc4c(n3)NC(=O)C(C)(C)O4)n2)cc1 [Compound 1312, N4-(2,2-Dimethyl-3-oxo-4H-5-pyrid[1,4]oxazin-6-yl)-5-fluoro-N2-[4-[N-(2-methoxycarbonylethyl)aminocarbonyl]phenyl]-2,4-pyrimidinediamine]

Same assay, conditions: isolated Syk kinase, 11-point, read-out: fp_syk, 11pt

Row | IC50 [µM] | SMILES
2 | < 10 | CC1(C)Oc2ccc(Nc3nc(Nc4cccc(-c5cnco5)c4)ncc3F)cc2NC1=O [Compound 1016]
3 | < 10 | O=C1COc2ccc(Nc3ncc(F)c(Nc4ccc5c(c4)NC(=O)CO5)n3)cc2N1 [Compound 1083]

Same assay, conditions: isolated Syk kinase, 11pt, read-out: fp_syk, 11pt

Row | IC50 [µM] | SMILES
4 | < 10 | CC1C(=O)Nc2cc(Nc3nc(Nc4ccc5cn[nH]c5c4)ncc3F)ccc2S1(=O)=O (stereo not drawn) [Compound 265]
5 | < 10 | CC1(C)Oc2ccc(Nc3nc(Nc4ccc(-c5ncco5)cc4)ncc3F)cc2NC1=O [Compound 1011]
6 | < 10 | CC(=O)NCCCn1ncc2cc(Nc3ncc(F)c(Nc4ccc5c(n4)NC(=O)C(C)(C)O5)n3)ccc21 [Compound 822, N2-[1-[3-(N-Acetylamino)propyl]indazol-5-yl]-N4-(2,2-dimethyl-3-oxo-4H-5-pyrid[1,4]oxazin-6-yl)-5-fluoro-2,4-pyrimidinediamine]
7 | < 10 | CCOc1c(C)cc(Nc2ncc(F)c(Nc3ccc4c(c3)NC(=O)C(C)(C)O4)n2)cc1Cl [Compound 1008]
8 | < 10 | CC1(C)Oc2ccc(Nc3nc(Nc4ccc5nc(C(F)(F)F)[nH]c5c4)ncc3F)cc2NC1=O [Compound 802, N4-(2,2-Dimethyl-3-oxo-4H-benz[1,4]oxazin-6-yl)-5-fluoro-N2-(2-trifluoromethyl-1H-benzimidazol-5-yl)-2,4-pyrimidinediamine]
9 | < 10 | CC1C(=O)Nc2cc(Nc3nc(Nc4ccc5[nH]c(C(F)(F)F)nc5c4)ncc3F)ccc2S1(=O)=O (stereo not drawn) [Compound 910, 5-Fluoro-N4-(2-methyl-1,1,3-trioxo-2H,4H-benzo[1,4]thiazin-6-yl)-N2-(2-trifluoromethyl-1H-benzimidazol-5-yl)-2,4-pyrimidinediamine]
10 | < 10 | CC1(C)Oc2ccc(Nc3nc(Nc4ccc5[nH]c(N6CCOCC6)nc5c4)ncc3F)nc2NC1=O [Compound 977, N4-(2,2-Dimethyl-3-oxo-4H-5-pyrido[1,4]oxazin-6-yl)-5-fluoro-N2-[2-(4-morpholino)-1H-benzimidazol-5-yl]-2,4-pyrimidinediamine]
11 | < 10 | COc1cc(Nc2ncc(F)c(Nc3ccc4c(c3)NC(=O)C(C)S4(=O)=O)n2)cc(OC)c1 (stereo not drawn) [Compound 263, N2-(3,5-Dimethoxyphenyl)-N4-(dioxide-2-methyl-1,1,3-trioxo-4H-benzo[1,4]thiazin-6-yl)-5-fluoro-2,4-pyrimidinediamine]
12 | < 10 | CCCCn1ncc2ccc(Nc3ncc(F)c(Nc4ccc5c(c4)NC(=O)C(C)(C)O5)n3)cc21 [Compound 716]
13 | < 10 | CC1(C)Sc2ccc(Nc3nc(Nc4ccc5cn[nH]c5c4)ncc3F)cc2NC1=O [Compound 295]
14 | < 10 | Cc1nc2cc(Nc3ncc(F)c(Nc4ccc5c(n4)NC(=O)C(C)(C)O5)n3)ccc2n1CCO [Compound 903, N4-(2,2-Dimethyl-3-oxo-4H-5-pyrid[1,4]oxazin-6-yl)-5-fluoro-N2-[1-(2-hydroxyethyl)-2-methylbenzimidazol-5-yl)-2,4-pyrimidinediamine]
15 | < 10 | COc1cc(Nc2ncc(F)c(Nc3ccc4c(c3)NC(=O)C(C)(C)S4(=O)=O)n2)cc(OC)c1 [Compound 267]
16 | < 10 | CCCCn1ncc2cc(Nc3ncc(F)c(Nc4ccc5c(c4)NC(=O)C(C)(C)O5)n3)ccc21 [Compound 712]
17 | < 10 | Cc1nc2cc(Nc3ncc(F)c(Nc4ccc5c(n4)NC(=O)C(C)(C)O5)n3)ccc2n1C [Compound 898, N2-(1,2-Dimethylbenzimidazol-5-yl)-N4-(2,2-dimethyl-3-oxo-4H-5-pyrid[1,4]oxazin-6-yl)-5-Fluoro-2,4-pyrimidinediamine]
18 | < 10 | Cc1nc2ccc(Nc3ncc(F)c(Nc4ccc5c(c4)NC(=O)C(C)(C)O5)n3)cc2[nH]1 [Compound 810, N4-(2,2-Dimethyl-3-oxo-4H-benz[1,4]oxazin-6-yl)-5-fluoro-N2-(2-methyl-3H-benzimidazol-5-yl)-2,4-pyrimidinediamine]
19 | < 10 | COc1cc(Nc2ncc(F)c(Nc3ccc4c(c3)NC(=O)C(C)S4(=O)=O)n2)cc(OC)c1OC (stereo not drawn) [Compound 266]
20 | < 10 | Cc1nc2cc(Nc3ncc(F)c(Nc4ccc5c(c4)NC(=O)C(C)(C)O5)n3)ccc2n1CCO [Compound 901]
21 | < 10 | CCCn1ncc2cc(Nc3ncc(F)c(Nc4ccc5c(c4)NC(=O)C(C)(C)O5)n3)ccc21 [Compound 704]
22 | < 10 | CC1(C)Oc2ccc(Nc3nc(Nc4ccc5[nH]c(CN6CCOCC6)nc5c4)ncc3F)nc2NC1=O [Compound 962, N4-(2,2-Dimethyl-3-oxo-4H-5-pyrido[1,4]oxazin-6-yl)-5-fluoro-N2-[2-(4-morpholinomethyl)-1H-benzimidazol-5-yl]-2,4-pyrimidinediamine]
23 | < 10 | COc1cc(Nc2ncc(F)c(Nc3ccc4c(c3)NC(=O)C(C)(C)S4(=O)=O)n2)cc(OC)c1OC [Compound 269]

Row | IC50 [µM] | SMILES
24 | < 10 | CC1(C)Oc2ccc(Nc3nc(Nc4ccc5[nH]c(N6CCOCC6)nc5c4)ncc3F)cc2NC1=O [Compound 976, N4-(2,2-Dimethyl-3-oxo-4H-benz[1,4]oxazin-6-yl)-5-fluoro-N2-[2-(4-morpholino)-1H-benzimidazol-5-yl]-2,4-pyrimidinediamine]
25 | < 10 | Cc1cc(C)cc(Nc2ncc(F)c(Nc3ccc4c(c3)NC(=O)C(C)S4(=O)=O)n2)c1 (stereo not drawn) [Compound 264]
26 | < 10 | Cc1cc(C)cc(Nc2ncc(F)c(Nc3ccc4c(c3)NC(=O)C(C)(C)S4(=O)=O)n2)c1 [Compound 268]
27 | < 10 | Cn1nc(N)c2cc(Nc3ncc(F)c(Nc4ccc5c(c4)NC(=O)C(C)(C)O5)n3)ccc21 [Compound 806, N2-(3-A mino-1-methylindazol-5-yl)-N4-(2,2-dimethyl-3-oxo-4H-benz[1,4]oxazin-6-yl)-5-fluoro-2,4-pyrimidinediamine]
28 | < 10 | CC1(C)Oc2ccc(Nc3nc(Nc4ccc5cnn(CC6CC6)c5c4)ncc3F)cc2NC1=O [Compound 740]
29 | < 10 | COc1c(C)cc(Nc2ncc(F)c(Nc3ccc4c(n3)NC(=O)C(C)(C)O4)n2)cc1C [Compound 997, N2-(3,5-Dimethyl-4-methoxyphenyl)-N4-(2,2-dimethyl-3-oxo-4H-5-pyrid[1,4]oxazin-6-yl)-5-fluoro-2,4-pyrimidinediamine]
30 | < 10 | Cc1nc2ccc(Nc3ncc(F)c(Nc4ccc5c(n4)NC(=O)C(C)(C)O5)n3)cc2[nH]1 [Compound 845, N4-(2,2-Dimethyl-3-oxo-4H-5-pyrid[1,4]oxazin-6-yl)-5-fluoro-N2-(2-methyl-3H-benzimidazol-5-yl)-2,4-pyrimidinediamine]
31 | < 10 | Cc1nn(C)c2cc(Nc3ncc(F)c(Nc4ccc5c(c4)NC(=O)C(C)(C)O5)n3)ccc12 [Compound 754]
32 | < 10 | CC1(C)Oc2ccc(Nc3nc(Nc4ccc5c(cnn5C5CCCCC5)c4)ncc3F)cc2NC1=O [Compound 744]
33 | < 10 | Cc1nc2ccc(Nc3ncc(F)c(Nc4ccc5c(c4)NC(=O)[C@H](C)O5)n3)cc2[nH]1 [Compound 811, (S)-5-Fluoro-N2-(2-methyl-3H-benzimidazol-5-yl)-N4-(2-methyl-3-oxo-2H,4H-benz[1,4]oxazin-6-yl)-2,4-pyrimidinediamine]
34 | < 10 | COc1cc(Nc2ncc(F)c(Nc3ccc4c(c3)NC(=O)C(C)(C)O4)n2)cc(OC)c1OC [Compound 543]
35 | < 10 | Cc1nc2ccc(Nc3ncc(F)c(Nc4ccc5c(c4)NC(=O)C(C)S5(=O)=O)n3)cc2[nH]1 (stereo not drawn) [Compound 909]
36 | < 10 | CC1(C)Oc2ccc(Nc3nc(Nc4ccc5[nH]c(C(F)(F)F)nc5c4)ncc3F)nc2NC1=O [Compound 846, N4-(2,2-Dimethyl-3-oxo-4H-5-pyrid[1,4]oxazin-6-yl)-5-fluoro-N2-(2-trifluoromethyl-1H-benzimidazol-5-yl)-2,4-pyrimidinediamine]
37 | > 10 | CN(c1ccc2c(c1)OCCO2)c1nc(Cl)ncc1F [Compound 390]
38 | < 10 | COc1cc(Nc2ncc(F)c(Nc3ccc4c(c3)NC(C)(C)CO4)n2)cc(OC)c1 [Compound 203, N4-(3,4-Dihydro-3,3-dimethyl-2H,4H-benz[1,4]oxazin-6-yl)-N2-(3,5-dimethoxyphenyl)-5-fluoro-2,4-pyrimidinediamine]
39 | < 10 | CC1(C)Oc2ccc(Nc3nc(Nc4cc(CO)cc(CO)c4)ncc3F)cc2NC1=O [Compound 344, N2-[3,5-Bis(hydoxymethylene)phenyl]-N4-(2,2-dimethyl-3-oxo-4H-benz[1,4]oxazin-6-yl)-5-fluoro-2,4-pyrimidinediamine]
40 | < 10 | Cc1nc2cc(Nc3ncc(F)c(Nc4ccc5c(c4)NC(=O)[C@H](C)O5)n3)ccc2n1CCO [Compound 902]
41 | < 10 | CC1(C)Oc2ccc(Nc3nc(Nc4ccc5[nH]c(CN6CCOCC6)nc5c4)ncc3F)cc2NC1=O [Compound 961, N4-(2,2-Dimethyl-3-oxo-4H-benz[1,4]oxazin-6-yl)-5-fluoro-N2-[2-(4-morpholinomethyl)-1H-benzimidazol-5-yl]-2,4-pyrimidinediamine]
42 | < 10 | O=C1Nc2cc(Nc3nc(Nc4ccc(-c5cnco5)cc4)ncc3F)ccc2OC1CCO (stereo not drawn) [Compound 227]
